In patent publication US20130078268A1, “VACCINE COMPOSITIONS AND METHODS OF USE THEREOF” (priority 2010, published 2013):
Where no end group is shown, it is not given here. [ ]: non-standard residue; d: D form. pGlu = O=C1CC[C@@H](C(=O)O)N1

Tested on: peptide of SEQ ID NO: 1
Experiment: Titer of antibody to the peptide of SEQ ID NO: 1 by peptide-based ELISA in serum of immunised mice
Type: in vivo
Conditions: male C57B1 mice; three subcutaneous injections of 100 μg peptide + 100 μg calcium phosphate nanoparticles at 3-week intervals; two weeks after the last injection
Description: Four male mice (8-week-old, C57B1) were given, three subcutaneous injections of vaccine composition comprising 100 μg of the peptide SEQ ID NO: 1 and 100 μg of calcium phosphate nanoparticles at 3-week intervals. As controls, an additional four mice received the vehicle. Two weeks after the last injection, the titer of antibody to the peptide of SEQ ID NO: 1 was assessed by the peptide-based enzyme-linked immunosorbent assay (ELISA). Samples were run in triplicate on ELISA plates coated with the peptide of the SEQ ID NO: 1, which was used as the immunogen. The peptide was bound in solid phase on high binding 96 well plates. Serum was diluted 1:500 and then serially diluted to a final dilution of 1:64,000. Detection of the antibody was obtained using an HRP conjugated secondary antibody (1:5,000) and TMB micro well peroxidase substrate.
Four male mice (8-week-old, C57B1) were given three intraperitoneal injections of vaccine composition of example 3 at 3-week intervals. As controls, an additional four mice received the vehicle. Two weeks after the last injection, the titer of antibody to the peptide of SEQ ID NO: 1 was assessed by the peptide-based enzyme-linked immunosorbent assay (ELISA) as described in the example 4. […] Thus, the administering vaccine compositions of the invention elicited protective immunity in animals against endogenous peptide of SEQ ID NO: 1.

Substance: pGlu-Pro-Pro-Gly-Gly-Ser-Lys-Val-Ile-Leu-Phe ([pGlu]PPGGSKVILF; listed as Homo sapiens) [peptide SEQ ID NO: 1]
- geometric mean titer of anti-SEQ ID NO: 1 antibodies in serum: about 70,000
